# pEC50: −log10 of the molar value.
# Legend:
# [1] = system: ATH-8 cell line; test: Concentration required to inhibit the cytopathic effect of HIV-1 on ATH8 cells; format: functional, Human immunodeficiency virus 1; conditions: Homo sapiens, read-out: ED50 (the source's name)
# [2] = system: ATH-8 cell line; test: Concentration required to suppress the growth of target ATH8 cells; format: functional; conditions: Homo sapiens, read-out: CD50 (the source's name)
# [3] = system: ATH-8 cell line; test: (§1) ratio of CD50/ED50; format: functional
# [4] = Compound was evaluated for the partition coefficient measured for 1-octanol and 0.01 M potassium phosphate buffer (pH 7.0); format: physicochemical; conditions: octanol/water
# [5] = system: ATH-8 cell line; test: In Vitro evaluation for the anti-viral activity Drug concentrations required to inhibit the cytopathic effect of HIV-2 on ATH8 cells; format: functional; conditions: Homo sapiens, read-out: ED50 (the source's name)
# [6] = system: ATH-8 cell line; test: In vitro evaluation for the anti-viral activity by taking the drug concentrations required to suppress the growth of target ATH8 cells; format: functional; conditions: Homo sapiens, read-out: CD50 (the source's name)
# [7] = system: ATH-8 cell line; test: In vitro evaluation for the anti-viral activity Drug concentrations required to inhibit the cytopathic effect of HIV-1on ATH8 cells; format: functional; conditions: Homo sapiens, read-out: ED50 (the source's name)
# [8] = system: ATH-8 cell line; test: Ratio of CD50/ED50; format: functional
# [9] = as §1; format: functional
pEC50 [1],Structure (SMILES),CC50 [2] [µM],also measured
5.10,Nc1nc(I)c2ncn(C3CCC(CO)O3)c2n1 (configuration not stated),210,–
5.25,O=c1[nH]cnc2c1ncn2[C@H]1CC[C@@H](CO)O1 [DIDANOSINE],> 900,Ratio [3]: >161; Partition coefficient [4]: 0.05
5.62,Nc1nc(F)c2ncn([C@H]3CC[C@@H](CO)O3)c2n1,> 300,pEC50 [5]: 4.84
< 3.70,Nc1ncc2ncn([C@H]3CC[C@@H](CO)O3)c2n1,> 200,–
–,Nc1nc(S)c2ncn(C3CCC(CO)O3)c2n1 (configuration not stated),–,CC50 [6]: 9 µM; pEC50 [7]: < 3.70; Ratio [8]: <0.1
5.16,OC[C@@H]1CC[C@H](n2cnc3c(Cl)ncnc32)O1,164,pEC50 [5]: 4.38
5.46,Nc1nc2c(ncn2[C@H]2CC[C@@H](CO)O2)c(=O)[nH]1,> 900,Ratio [3]: >257; Partition coefficient [4]: 0.08
4.34,OCC1CCC(n2cnc3c(I)ncnc32)O1 (configuration not stated),86,–
5.11,OCC1CCC(n2cnc3c(Br)ncnc32)O1 (configuration not stated),96,–
< 3.70,OCC1CCC(n2cnc3c(S)ncnc32)O1 (configuration not stated),150,Ratio [3]: <0.8
< 3.70,OC[C@@H]1CC[C@H](n2cnc3cncnc32)O1,> 200,–
< 3.70,OC[C@@H]1CC[C@H](n2cnc3c(Cl)nc(Cl)nc32)O1,36,Ratio [9]: < 0.2
5.55,OC[C@@H]1CC[C@H](n2cnc3c(F)ncnc32)O1,190,pEC50 [5]: 4.80
5.30,Cc1cn([C@H]2C[C@H](N=[N+]=[N-])[C@@H](CO)O2)c(=O)[nH]c1=O [ZIDOVUDINE],> 20,Ratio [8]: 4; Partition coefficient [4]: 1.12
5.16,Nc1nc(Br)c2ncn(C3CCC(CO)O3)c2n1 (configuration not stated),> 300,–
5.26,Nc1nc(Cl)c2ncn([C@H]3CC[C@@H](CO)O3)c2n1,> 300,pEC50 [5]: 4.90
< 3.70,O=c1[nH]c(=O)c2ncn([C@H]3CC[C@@H](CO)O3)c2[nH]1,> 200,–

# — ChEMBL document CHEMBL1125691, “Escherichia coli mediated biosynthesis and in vitro anti-HIV activity of lipophilic 6-halo-2',3'-dideoxypurine nucleosides” (J Med Chem, 1991)
